# From patent US9604974B2, “Compounds as modulator of JAK-STAT pathway, methods and applications thereof” (UNIVERSITY OF MYSORE, priority 2015, dated 2017)
# Key:
# JAK2 = assay: Western blot of constitutive phospho-JAK2 in HepG2; assay type: cell-based, human; conditions: HepG2, 10 μMol/L CIMO
# Experimental: FIG. 2 depicts the suppression of phospho-STAT3 by compound 1 (CIMO) in a dose dependent manner [A]. HepG2 cells (5×10^5/mL) are treated with the indicated concentrations of CIMO for 6 hours, after which whole-cell extracts are prepared and resolved on SDS-PAGE gel, electrotransferred onto nitrocellulose membrane, and probed for phospho-STAT3. The same blot is stripped and reprobed with STAT3 antibody to verify equal protein loading. […] HepG2 cells (5×10^5/mL) are treated with the indicated concentrations of AG490 for about 6 hours, after which Western Blotting is done as described for [A]. [C] depicts the suppression of phospho-STAT3 levels by Compound 1 (CIMO) in a time-dependent manner. HepG2 cells (5×10^5/mL) are treated with 10 μMol/L CIMO for the indicated times, after which Western blotting is done as described for [A]. [D] depicts that compound 1 (CIMO) has no effect on phospho-STAT3 (Ser-727) and STAT3 protein expression. […] HepG2 cells (1×10^5/mL) are incubated with or without 10 μMol/L CIMO for about 6 hours and then analyzed for the intracellular distribution of STAT3 by immunocytochemistry. The same slides are counterstained for nuclei with Hoechst (50 ng/mL) for about 5 minutes and analyzed under an fluorescencemicroscope. […]
# [1] = system: CAL27 (head and neck cancer cell line); assay: MTT anti-proliferative assay, CAL27; assay type: cell-based; conditions: Homo sapiens, CAL-27
# Experimental: The anti-proliferative activity of Formula I compounds are studied on HepG2 cells using MTT assay. Briefly, the cells (2.5×10^4/ml) are incubated in triplicate in a 96-well plate in the presence or absence of different concentrations of compounds in a final volume of 0.2 ml up to 72 hours at 37° C. Thereafter, 20 μl MTT solution (5 mg/ml in PBS) is added to each well. After 2 hours of incubation at 37° C., 0.1 ml lysis buffer (20% SDS, 50% dimethyl-formamide) is added; incubation is continued overnight at 37° C.; and the optical density (OD) at 570 nm is measured by Tecan plate reader.
# Additionally, Compound 1 is tested on a panel of six cell lines including Hep3B, PLC/PRF5, AGS (gastric cancer cell line), DU145 (prostrate cancer cell line), MDA MB231 (breast cancer cell line) and CAL27 (head and neck cancer cell line) cells.
# Huh 7-Luc tumors = assay: Orthotopic human HCC model, bioluminescence tumor growth; assay type: in vivo, athymic nu/nu female mice; conditions: 10 mg/kg intraperitoneal, five days a week; p value=0.0385
# Experimental: All animal experiments were performed according to protocols approved by the SingHealth Institutional Animal Use and Care Committee. For drug efficacy study, eight week-old athymic nu/nu female mice (from Biolasco, Taiwan) were implanted with the Huh 7-Luc cells orthotopically as described in the below examples. When the bioluminescence signal reached 10^6, mice were treated either with vehicle (1% DMSO), 2 mg/kg of CIMO or 10 mg/kg of CIMO five days a week intraperitoneally. Tumor development was monitored twice a week by measuring the bioluminescence signals. Mice were euthanized when the humane end-point criteria is met by CO2 inhalation. Primary liver tumor and lung tissues were excised, snap-frozen and stored at −80° C. until further analysis.
# The antitumor potential of CIMO is tested in vivo via. intra-peritoneal administration in an orthotopic model of human HCC using Huh 7-Luc transfected cells. 100 μl containing 3×10^6 Huh 7-Luc cells are injected subcutaneously in the right flank of Nude mice. When the tumor volume reaches approximately 1 cm^3, tumor is harvested, cut into 2 mm^3 pieces and then implanted orthotopically into the liver of Nude mice. […] The development of tumors is monitored by imaging and quantification of the bioluminescence signals using the Xenogen IVIS system (Caliper Life Sciences, CA). […]
# JAK1 = assay: Western blot of constitutive phospho-JAK1 in HepG2; assay type: cell-based, human; conditions: HepG2, 10 μMol/L CIMO
compound,measurement,setting,value
COc1ccc(C2CNC(c3cn(Cc4ccc(-c5ccccc5C#N)cc4)c4ccccc34)OC23CCCCC3)cc1 (stereo not shown) [Compound 1],phosphorylation of JAK2,JAK2,significant inhibition
same,IC50,[1],27.1 µM
same,tumor growth versus DMSO treated controls,Huh 7-Luc tumors,significant inhibition of tumor growth
same,phosphorylation of JAK1,JAK1,significant inhibition
